From patent publication US9623021B2, “Nuclear receptor binding agents” (GTX, Inc., priority 2007, dated 2017)
“Also recorded” adds a separate entry of the source.

What was measured:
[1] = target: ERβ ligand binding domain (Homo sapiens (Human), UniProt Q92731); experiment: Competitive [3H]-estradiol radioligand binding, ERβ (Example 21); conditions: ratio between the binding constants of ER-α and ER-β
Protocol: (§1) ER binding affinity was determined via one of the following methods:
(§2) Briefly, the incubation mixture was filtered through a high affinity protein binding filter, and washed several times to remove any unbound radioactivity. The filter plate was air dried and sealed on the bottom.
(§3) Following incubation, plates were harvested onto GF/B filters and radioactivity was measured with a TopCount NXT (PerkinElmer). Nonspecific binding was subtracted from total binding to yield specific binding.

[2] = tested on: THP-1 macrophage cell adhesion to bEND-3 endothelial cells; experiment: Macrophage adhesion assay (LPS induced THP-1 adhesion to bEND-3 endothelial cells); assay type: cell-based; conditions: FIG. 13
Protocol: To determine the anti-inflammatory effects of ER-β NRBAs in vitro, a macrophage adhesion assay was performed. Macrophages adhere to endothelial cells due to elevated levels of pro-inflammatory cytokines. This principle was used in this assay to determine the effect of one of the ER-β NRBAs on bacterial lipopolysaccharide (LPS) induced THP-1 macrophage cell adhesion to bEND-3 endothelial cells.

[3] = target: ERα ligand binding domain (Homo sapiens (Human), UniProt P03372); experiment: Competitive [3H]-estradiol radioligand binding, ERα (Example 21)
Protocol: as §1, §2, §3

ARPE-19 cells = experiment: Fluorescent detection of intracellular ROS in ARPE-19 cells (tBH oxidative stress); conditions: 150 μM tBH, FIG. 20B
SHP promoter [4] = experiment: SHP promoter-luciferase in HEK-293 cells transfected with FXR and ER-α; assay type: cell-based; conditions: FIG. 12E left panel
Protocol: (§4) FIG. 12 depict the effect of ER-β ligand on PPAR-γ function through ligand binding domain (LBD). (A). HEK-293 cells were transfected with 0.25 μg PPRE-LUC, 5 ng CMV-renilla LUC and the indicated receptors (PPAR-γ and ER-β for the left panel and PPAR-α and ER-β for the right panel). The cells were treated 24 hrs after transfection with the indicated ligands and harvested 48 hrs after transfection and firefly luciferase activity was measured and normalized to renilla luciferase. (B). H475 in ER-β LBD is important for its function. H475 in ER-β LBD was mutated to alanine (A) using a site directed mutagenesis kit. Transactivation assay was performed as described in panel A in HEK-293 cells with a titration of ER-β ligands in wild type or ER-β H475A. (C). […] The cells were treated 24 hrs after transfection with the indicated ligands and harvested 48 hrs after transfection and firefly luciferase activity was measured and normalized to renilla luciferase. […] The cells were treated 24 hrs after transfection with the indicated ligands and harvested 48 hrs after transfection and firefly luciferase activity was measured and normalized to renilla luciferase. […] The cells were treated 24 hrs after transfection with the indicated ligands and harvested 48 hrs after transfection and firefly luciferase activity was measured and normalized to renilla luciferase. […]

PPAR-γ = PPAR-γ transactivation (PPRE-LUC) in HEK-293 cells co-transfected with ER-β; assay type: cell-based; conditions: FIG. 12A left panel
Protocol: as §4

PPAR-α = PPAR-α transactivation (PPRE-LUC) in HEK-293 cells co-transfected with ER-β; assay type: cell-based; conditions: FIG. 12A right panel
Protocol: as §4

[5] = tested on: Ishikawa endometrial cells; experiment: Ishikawa growth assay (alkaline phosphatase); assay type: cell-based
Protocol: Ishikawa cells were plated at 15,000 cells/well in 24 well plates in DME:F12 (1:1)+5% csFBS w/o phenol red. The cells were maintained in this medium at 37° C. for 3 days. Medium was changed immediately prior to drug treatment for an additional 72 hrs. After 72 hrs, the cells were fixed with formalin and the amount of alkaline phosphatase (ALP) measured by para-nitrophenyl phosphate method.
This effect is one potential concern in the development of ER-α SERMs.

SHP promoter [6] = experiment: SHP promoter-luciferase in HEK-293 cells transfected with FXR and ER-β; assay type: cell-based; conditions: FXR and ER-β plasmids, FIG. 12E right panel
Protocol: FIG. 12 depict the effect of ER-β ligand on PPAR-γ function through ligand binding domain (LBD). (A). HEK-293 cells were transfected with 0.25 μg PPRE-LUC, 5 ng CMV-renilla LUC and the indicated receptors (PPAR-γ and ER-β for the left panel and PPAR-α and ER-β for the right panel). The cells were treated 24 hrs after transfection with the indicated ligands and harvested 48 hrs after transfection and firefly luciferase activity was measured and normalized to renilla luciferase. (B). H475 in ER-β LBD is important for its function. H475 in ER-β LBD was mutated to alanine (A) using a site directed mutagenesis kit. Transactivation assay was performed as described in panel A in HEK-293 cells with a titration of ER-β ligands in wild type or ER-β H475A. (C). […] HEK-293 cells were transfected with 0.25 μg PPRE-LUC, 5 ng CMV-renilla LUC and 50 ng of the indicated receptors (PPAR-γ or PPAR-γ and wild type ER-β or PPAR-γ and ER-β H475A). The cells were treated 24 hrs after transfection with the indicated ligands and harvested 48 hrs after transfection and firefly luciferase activity was measured and normalized to renilla luciferase. (D). […] HepG2 cells were transfected with 0.25 μg PPRE-LUC, 5 ng CMV-renilla LUC, 0.5 μg PGC-1 or vector backbone and 100 ng of the indicated receptors (PPAR-γ or PPAR-γ and wild type ER-β or PPAR-γ and ER-β H475A for top panels and PPAR-α or PPAR-α and ER-β for bottom panel). The cells were treated 24 hrs after transfection with the indicated ligands and harvested 48 hrs after transfection and firefly luciferase activity was measured and normalized to renilla luciferase. (E). SHP-1 is an ER-β specific target gene. HEK-293 cells were transfected with 0.25 μg SHP-LUC, 5 ng CMV-renilla LUC and 50 ng of the indicated receptors (FXR and ER-α for the left panel and FXR and ER-β for the right panel). The cells were treated 24 hrs after transfection with the indicated ligands and harvested 48 hrs after transfection and firefly luciferase activity was measured and normalized to renilla luciferase. […]

ER-α [7] = target: T1, ER-α (Rattus norvegicus (Rat), UniProt P06211); experiment: Transient transfection and reporter gene assay, ER-α, HEK-293 cells (Example 22A); assay type: cell-based; conditions: ERE-LUC
Protocol: Human estrogen receptors (ER-α and ER-β) were cloned from prostate cDNA into a pCR3.1 plasmid vector backbone. PGC-1 was cloned into mammalian two hybrid vector pACT. ER-β H475 was mutated to alanine using site-directed mutagenesis. Sequencing was performed to determine the absence of any non specific mutations. SHP promoter (−572 to +10) (26) was cloned into pGL3 basic LUC reporter vector and human FXR was cloned into pCR3.1. HEK-293 cells were plated at 100,000 cells per well of a 24 well plate in […] (DMEM)+5% charcoal-stripped fetal bovine serum (csFBS). The cells were transfected using Lipofectamine (Invitrogen, Carlsbad, Calif.) with 0.25 μg ERE-LUC, 0.02 μg CMV-LUC (renilla luciferase) and 12.5 ng of rat ER-α or 25 ng rat ER-β. […] Luciferase assays were performed 48 hrs after transfection.
To determine if the selectivity in ER binding also translated into ER-β-selective activity, transient transactivation assays were performed in HEK-293 cells transfected with plasmids encoding ER-α or ER-β and ERE-LUC. The cells were treated with varying concentrations of the ligands and their EC50 values were determined.

ER-α [8] = target: T1, ER-α; assay type: cell-based; conditions: 100 nM NRBA compared to 1 nM estradiol
Protocol: COS or 293 cells were plated in DME without phenol red+10% cs FBS at 90,000 cells per well in 24 well plates, and were transfected with 0.25 μg of the vector “ERE-LUC”, where a firefly luciferase gene was driven by two estrogen responsive elements and 0.02 μg of the control CMV-LUC, Renilla where a luciferase gene was driven by a CMV promoter. […] All the receptors were cloned from rat tissue into the PCR3.1 vector backbone. Twenty four hours post transfection, cells were treated with compounds of this invention, estrogen, DHT, and other NRBAs or combinations thereof. Cells were harvested 48 hrs after transfection, and assayed for firefly and Renilla luciferase activity.

[9] = tested on: high fat diet fed C57BL6 mice; experiment: High fat diet induced obesity model, prevention studies (studies 1 and 2)
Protocol: Study A: C57BL6 male mice of 4 weeks of age were divided into different groups and were fed with a normal or high fat diet (Harlan, Ind.).
For the treatment study (study 3), the animals were maintained on the irrespective diets for 6 weeks and then treated daily as indicated for an additional 18 weeks. Biweekly body weights and food consumption were measured. The animals were sacrificed at the end of each study and blood and tissues were collected for RNA isolation, histology and protein estimation.
Cholesterol and leptin concentrations were measured in serum using ELISA-based methods.
Histology was performed on cryosections and stained with oil 0 red.
Oral glucose tolerance tests (OGTT) were performed on 16-h fasted mice. Mice were given 150 mg glucose by oral gavage through a gastric tube.
Six week old C57BL/6 mice were randomized, based on body weight, into three study groups as shown in the Study Parameters Table below.
The mice were treated for 12 weeks. Twice weekly, the body weight and feed consumption were measured.
A glucose tolerance test was also performed at the completion of the study by administering 150 mg glucose orally to the mice and measuring blood glucose levels at 0, 15, 30 and 60 minutes post glucose administration.
At sacrifice, the mice organ weights were measured and collected for histology, gene expression and protein expressions. Blood was collected for serum marker determination (cholesterol, glucose, leptin).
Dual energy X-ray absorptiometry (DEXA) was performed to measure the body composition in Study 1.
An MRI scan was performed at the beginning of the study, after 6 weeks and at the completion of the study.

[10] = Brown Adipose Tissue, vs high fat diet vehicle, >2-fold, p<0.01
[11] = Liver, vs high fat diet vehicle, >2-fold, p<0.01
[12] = White Adipose Tissue, vs high fat diet vehicle, >2-fold, p<0.01
[13] = high fat diet, 30 mg/kg/day s.c., 12 weeks
[14] = high fat diet, 30 mg/kg/day s.c., 12 weeks, FIG. 7
[15] = high fat diet, 30 mg/kg/day s.c., 12 weeks, study 1
[16] = high fat diet, 30 mg/kg/day s.c., Study 2

Sequence of ERβ ligand binding domain (Q92731 264-498, species assumed): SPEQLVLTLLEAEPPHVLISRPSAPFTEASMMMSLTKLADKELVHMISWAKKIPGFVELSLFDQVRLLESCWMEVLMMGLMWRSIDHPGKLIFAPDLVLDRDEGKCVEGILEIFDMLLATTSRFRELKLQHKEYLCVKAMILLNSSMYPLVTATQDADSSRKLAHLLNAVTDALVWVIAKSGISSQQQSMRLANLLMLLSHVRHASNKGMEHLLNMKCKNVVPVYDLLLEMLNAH
Sequence of ERα ligand binding domain (P03372 whole entry, looked up, species assumed, the tested form may be a part): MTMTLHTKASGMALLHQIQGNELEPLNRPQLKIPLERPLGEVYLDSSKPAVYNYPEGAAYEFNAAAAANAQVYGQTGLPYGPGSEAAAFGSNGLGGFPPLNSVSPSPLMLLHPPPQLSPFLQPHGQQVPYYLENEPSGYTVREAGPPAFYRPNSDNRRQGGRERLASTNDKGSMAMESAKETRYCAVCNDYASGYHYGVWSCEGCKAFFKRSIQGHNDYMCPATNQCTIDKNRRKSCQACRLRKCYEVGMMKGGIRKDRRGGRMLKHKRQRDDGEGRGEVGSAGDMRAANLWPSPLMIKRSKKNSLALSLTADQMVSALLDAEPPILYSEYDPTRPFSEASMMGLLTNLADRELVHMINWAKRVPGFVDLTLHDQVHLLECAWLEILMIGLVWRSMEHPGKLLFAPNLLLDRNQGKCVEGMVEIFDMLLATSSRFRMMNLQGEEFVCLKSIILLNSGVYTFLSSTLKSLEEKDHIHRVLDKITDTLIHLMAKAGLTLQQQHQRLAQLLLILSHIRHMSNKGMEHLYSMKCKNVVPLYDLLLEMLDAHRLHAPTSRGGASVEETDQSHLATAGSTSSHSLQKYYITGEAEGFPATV

Structure (SMILES): O=c1c2c(O)cc(O)cc2c(Cl)cn1-c1ccc(O)cc1 [Compound 12y, 4-chloro-6,8-dihydroxy-2-(4-hydroxyphenyl)isoquinolin-1(2H)-one]
- Ki Ratio (ER-α/ER-β) [1]: 11
- adhesion of 3H labeled THP-1 cells to bEND-3 cells [2]: significantly inhibited the adhesion
- Ki [3]: 36 nM
- prevention of ROS formation / oxidative damage (ARPE-19 cells): protected ARPE-19 cells from oxidative damage

Structure (SMILES): CCCc1c(-c2ccc(O)cc2)nn(-c2ccc(O)cc2)c1-c1ccc(O)cc1 [PPT, 1,3,5-tris(4-hydroxyphenyl)-4-propyl-1H-pyrazole]
- SHP activity (SHP promoter [4]): increased SHP activity

Structure (SMILES): N#Cc1cn(-c2ccc(O)cc2)c(=O)c2c(O)cc(O)cc12 [Compound 14m, 6,8-dihydroxy-2-(4-hydroxyphenyl)-1-oxo-1,2-dihydroisoquinoline-4-carbonitrile]
- troglitazone-induced PPAR-γ activity (PPAR-γ): partially inhibited
- WY14643 induced PPAR-α transactivation (PPAR-α): did not affect
- Ishikawa cell proliferation ([5]; FIG. 3C): weakly induce
- concentration at which proliferation of Ishikawa cells was induced ([5]; highest concentration tested, ALP assay, 72 hrs): 1 µM
- SHP activity (SHP promoter [6]): neither of the ligands activated SHP
- function at ER-α in transactivation (ER-α [7]): agonists
- Estradiol activity at 100 nM, ER-α (ER-α [8]): 49%
- prevention of body weight increase caused by the high fat diet ([9]; 30 mg/kg/day s.c., 12 weeks, Study 2): more than 50%
- high fat diet increase in expression of genes that promote lipogenesis (LPL, FASN, SREBP-1, PLTP, Dhcr24) ([9]; BAT and WAT): reversed
- Ddit3 (DNA damage inducible transcript III) gene expression [9, 10]: Decrease
- Dhcr24 (dehydrocholesterol reductase) gene expression [9, 10]: Decreased
- ER-β (Estrogen receptor β) gene expression [9, 10]: Increased
- GPx-3 (glutathione peroxidase) gene expression [9, 10]: Increase
- LPL (lipoprotein lipase) gene expression [9, 10]: Decrease
- PLTP (phospholipid transfer protein) gene expression [9, 10]: Decrease
- UCP-1 (uncoupled protein-1) gene expression [9, 10]: Increased
- CIDEA (Cell death inducing DNA fragmentation factor) gene expression [9, 11]: Decrease
- GPx-3 (glutathione peroxidase) gene expression [9, 11]: Increase
- Ddit3 (DNA damage inducible transcript III) gene expression [9, 12]: Decrease
- FASN (fatty acid synthase) gene expression [9, 12]: Decrease
- LPL (lipoprotein lipase) gene expression [9, 12]: Decrease
- SREBP1 (Sterol regulatory element binding protein 1) gene expression [9, 12]: Decrease
- bone mineral content (BMC), DEXA [9, 13]: prevented the loss in BMC
- serum cholesterol increase by high fat diet [9, 13]: significantly reversed
- serum leptin increase by high fat diet [9, 13]: significantly reversed
- white adipose tissue (WAT) weight ([9]; high fat diet, 30 mg/kg/day s.c., 12 weeks, FIG. 6B): significantly reduced
- gastrocnemius muscle weight [9, 14]: increased gastrocnemius muscle weight
- white adipose tissue (WAT) weight [9, 14]: prevented the increase in the WAT weight; also recorded: comparably decreased WAT weight
- body fat (DEXA) [9, 15]: suppressing fat mass formation
- reduction in body weight compared to high fat diet and vehicle [9, 15]: greater than 85%
- weight gained more than normal diet-fed controls [9, 15]: 5%
- serum macrophage inflammatory protein-1β (MIP-1β) increase by high fat diet ([9]; high fat diet, 30 mg/kg/day s.c., FIG. 6F): completely reversed
- accumulation of fat in the liver (oil red staining) ([9]; high fat diet, 30 mg/kg/day s.c., FIG. 8): attenuated the accumulation of lipid droplets in the liver; also recorded: completely prevented the accumulation of fat in the liver
- fat mass (MRI) [9, 16]: reduce fat mass
- lean mass (MRI) [9, 16]: increase muscle mass; also recorded: increased the lean mass
- prevention of the increase in body fat (MRI) [9, 16]: more than 50%
- total caloric intake (feed consumption) ([9]; high fat diet, 30 mg/kg/day s.c., study 1): did not affect total caloric intake
- blood glucose levels, glucose tolerance test ([9]; high fat diet, 30 mg/kg/day s.c., 150 mg glucose orally): not statistically different from the normal diet controls
- testes weights ([9]; high fat diet, 12 weeks, FIG. 9A): not altered
- serum testosterone levels ([9]; high fat diet, 12 weeks, FIG. 9B): did not affect; also recorded: not altered
- serum follicle stimulating hormone (FSH) ([9]; high fat diet, 12 weeks, FIG. 9C): did not affect; also recorded: not altered
